Measurements from patent publication US8912214B2, “Use of Chk2 kinase inhibitors for cancer treatment” (The United States of America, as Represented by the …, priority 2005, dated 2014).
Read-outs that look alike come from different tables or passages of the source.

Tests used:
Type in all cases: biochemical
Chk2 [1] = molecular target: T1, Chk2 (Homo sapiens, UniProt O96017); experiment: IMAP Chk2 high-throughput screening assay (fluorescence polarization)
Chk1 [2] = molecular target: T2, Chk1 (Homo sapiens, UniProt O14757); experiment: Chk1 inhibitory activity of screening hits; conditions: FIG. 2
T2 sequence (O14757 1-476): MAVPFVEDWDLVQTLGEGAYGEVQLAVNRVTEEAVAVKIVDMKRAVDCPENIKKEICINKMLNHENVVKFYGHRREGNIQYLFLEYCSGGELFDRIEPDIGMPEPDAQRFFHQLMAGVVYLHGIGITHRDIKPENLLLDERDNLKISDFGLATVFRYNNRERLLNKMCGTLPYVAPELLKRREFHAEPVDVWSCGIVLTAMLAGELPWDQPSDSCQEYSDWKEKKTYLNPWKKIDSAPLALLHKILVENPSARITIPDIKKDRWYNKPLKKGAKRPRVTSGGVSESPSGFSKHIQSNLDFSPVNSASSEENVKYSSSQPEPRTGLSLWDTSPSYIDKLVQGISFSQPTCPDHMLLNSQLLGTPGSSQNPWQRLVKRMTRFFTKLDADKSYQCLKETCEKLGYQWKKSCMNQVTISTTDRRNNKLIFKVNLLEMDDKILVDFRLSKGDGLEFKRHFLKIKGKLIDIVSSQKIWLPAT

Chk2 [3] = molecular target: T1, Chk2; experiment: In vitro Chk2 kinase assay (γ32P-ATP, SDS-PAGE); conditions: with increasing concentration; 30° C.; FIGS. 4 and 5
Procedure: (§1) Following on from the data obtained from high-throughput screening, another assay is employed to measure Chk2 kinase activity. This assay is based on using γ^32P-labeled ATP to mediate phosphorylation of the target substrate and autophosphorylation of Chk2. Histone H1 or Cdc25C is used as test substrate. The reactions are performed at 30° C. for appropriate times, then the samples have 2×SDS loading buffer added to quench the reaction. The samples are boiled for about 5 minutes and then subjected to SDS-PAGE.

Chk1 [4] = molecular target: T2, Chk1; experiment: In vitro Chk1 kinase assay (γ32P-ATP, SDS-PAGE); conditions: FIG. 6
Excerpt: FIG. 6 illustrates inhibition of Chk1 kinase activity by NSC 109555 using an in vitro kinase assay. Top bands indicate the level of Chk1 autophosphorylation, bottom bands indicate the level of histone H1 phosphorylation.
as §1
Staurosporine is used as a positive control to confirm Chk2 inhibition (See, FIG. 4). Following on from this, NSC 109555 is used in this assay and is depicted in FIG. 5. […].

[5] = IMAP assay, fluorescein-labeled peptide substrate, read-out: EC50 (Chk2 inhibition)

T1 sequence (O96017 whole entry): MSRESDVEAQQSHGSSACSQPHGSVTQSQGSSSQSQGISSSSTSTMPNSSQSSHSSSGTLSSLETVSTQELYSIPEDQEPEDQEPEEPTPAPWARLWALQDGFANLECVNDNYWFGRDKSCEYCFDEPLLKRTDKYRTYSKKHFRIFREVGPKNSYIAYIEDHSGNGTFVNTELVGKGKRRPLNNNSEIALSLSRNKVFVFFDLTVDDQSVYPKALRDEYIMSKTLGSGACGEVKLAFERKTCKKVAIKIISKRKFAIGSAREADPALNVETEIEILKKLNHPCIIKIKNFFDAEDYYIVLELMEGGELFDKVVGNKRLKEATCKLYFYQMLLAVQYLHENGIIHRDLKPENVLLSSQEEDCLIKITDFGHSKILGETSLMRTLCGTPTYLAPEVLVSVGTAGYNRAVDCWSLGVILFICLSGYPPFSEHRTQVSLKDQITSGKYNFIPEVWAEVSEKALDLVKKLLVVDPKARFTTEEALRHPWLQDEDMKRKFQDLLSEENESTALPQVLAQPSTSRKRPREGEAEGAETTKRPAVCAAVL

| Compound | EC50 (Chk2 [1]; [5]) [µM] | other results |
| --- | --- | --- |
| C/C(=N\O)c1ccc2c(c1)C(=NO)c1cc(/C(C)=N/O)ccc1-2 [Compound 5] | ~4 | – |
| O=[N+]([O-])c1ccc2c(c1)C(=NO)c1cc([N+](=O)[O-])ccc1-2 [Compound 7] | – | EC50 (Chk2 [1]): 0.8 to 4 µM |
| CCN(CC)CCCNc1ccc2nc(C)n3c4ccc(O)cc4c(=O)c1c23 [Compound 8] | ~20 | – |

Now from value to compound, other results behind:

| EC50 (Chk2 [1]; [5]) [µM] | Compound | other results |
| --- | --- | --- |
| 0.6 to 3.8 | C/C(=N\O)c1ccc2c(c1)C(=NO)c1ccccc1-2 [Compound 6] | – |
| 0.051 | C/C(=N\NC(=N)N)c1ccc(NC(=O)Nc2ccc(/C(C)=N/NC(=N)N)cc2)cc1 [NSC 109555] | inhibitory effect on Chk1 activity (Chk1 [2]): little or no inhibitory effect; Chk2 kinase activity (autophosphorylation and histone H1 phosphorylation) (Chk2 [3]): inhibited; kinase activity of Chk1 (Chk1 [4]): did not appear to inhibit |
